Measured values reported in patent publication EP2457907A1, “Flavagline derivatives as neuroprotective agents” (Université de Strasbourg, priority 2010, dated 2012).

Tests used:
[1] = tested on: primary rat mesencephalic neurons; experiment: Neuroprotection against MPP+-induced apoptosis (in vitro model of Parkinson's disease), TH immunostaining; format: cell-based; conditions: 3µM MPP+; numbers only in Figure 4
Procedure: The neuroprotectant activity was tested in a cellular model of Parkinson's disease on primary mesencephalic cultures of rat embryos treated by MPP^+ (3µM) (Hoglinger et al. 2003).
Postmitotic dopaminergic neurons from the ventral mesencephalon of embryonic day 15.5 Wistar rat embryos (CERJ, Le Genest St. Isle, France) were dissociated mechanically, plated onto polyethylenimine-precoated 24-well culture plates, grown in N5 medium supplemented with 5 mM glucose, 5% horse serum and 2.5% fetal calf serum, as described previously (Michel et al., 1989). After 3 days, fetal calf serum was reduced to 0.5% to limit astrocyte proliferation. All experiments were initiated at day 5 in N5 medium containing 1 % horse serum and 0.1 % fetal calf serum. For each experiment MPP^+ (Sigma) was diluted to 10 mM in H2O. Cells were fixed with 4% formaldehyde for immunocytochemistry. Dopaminergic neurons were visualized by immunocytochemical detection of tyrosine hydroxylase (TH).

[2] = tested on: primary cultures of mouse cerebellar neurons; experiment: Neuroprotection against cisplatin-induced apoptosis (MTT assay); format: cell-based; conditions: flavagline derivative 1 nM, cisplatin 2.5 µM, 48 hours; numbers only in Figure 3
Procedure: The in vitro neuroprotectant activity against neurotoxicity of an antineoplastic agent was assayed on apoptosis induced by cisplatin (2.5 µM) in primary cultures of mouse cerebellar neurons. Neuronal survival was measured by MTT assay.
Cerebellar granular neurons were dissected from 7-day old mice as described previously (Benosman et al., 2007). Briefly, after enzymatic and mechanical dissociation, cells were plated at a density of 500 cells/mm^2 on 0.1 mg/ml polyornithine-pre-coated culture dishes and were grown at 37 °C in a humidified atmosphere (5% CO2 / 95% air). Plating culture medium contained DMEM (Dulbecco's modified Eagle's medium; Life Technology) supplemented with 10% heat-inactivated horse serum (Life Technology), 100 nM insulin (Life Technology), […] gentamycin (Life Technology) and 25 mM KCl. […]
Mature neurons were cultured in 96-well culture dishes (Costar) and incubated for 48 hours in presence of cisplatine (2.5 µM) and flavagline derivative (1 nM) (which were both added into the medium at the same time). […] Plates were stirred at room temperature to ensure that all crystals were dissolved and read on a Bio-Rad 680 micro-ELISA plate-reader, using a test wavelength of 490 nm and a non-specific wavelength of 650 nm for background absorbency. […]

| Compound | protection against MPP+-induced neurodegeneration (TH-positive dopaminergic neurons) [1] | protection of neurons against apoptosis induced by cisplatin (neuronal survival) [2] |
| --- | --- | --- |
| COc1cc(OC)c2c(c1)OC1(c3ccc(Br)cc3)C(c3ccccc3)CC(NC=O)C21O (centres unmarked) [FL23, N-(3a-(4-Bromophenyl)-8b-hydroxy-6,8-dimethoxy-3-phenyl-2,3,3a,8b-tetrahydro-1H-cyclopenta[b]benzofuran-1-yl)formamide] | able to prevent or limit neuronal cell degeneration | able to prevent or limit neuronal cell apoptosis |
| COc1cc(OC)c2c(c1)OC1(c3ccc(Br)cc3)C(c3cccc(F)c3)CC(NC=O)C21O (centres unmarked) [FL32, N-(3a-(4-Bromophenyl)-3-(3-fluorophenyl)-8b-hydroxy-6,8-dimethoxy-2,3,3a,8b-tetrahydro-1H-cyclopenta[b]benzofuran-1-yl)formamide] | able to prevent or limit neuronal cell degeneration | – |
| COc1cc(OC)c2c(c1)OC1(c3ccc(Br)cc3)C(c3cccc(F)c3)CC(NC(=O)N(C)C)C21O (centres unmarked) [FL37] | able to prevent or limit neuronal cell degeneration | able to prevent or limit neuronal cell apoptosis |
